From PubChem BioAssay AID1996
Converted amounts (≈) assume the structure as drawn.

Conditions: buffer; pH 7.4; 200.0 µM

SMILES	solubility kinetic [µg/mL]
Cn1c(=O)c2c(ncn2CC(=O)OCC(=O)Nc2cc(Cl)ccc2C#N)n(C)c1=O	63.2 (≈ 147 µM)
CC(C)(C)c1ccc(NC(=O)NC2CCCc3ccccc32)cc1 (stereo unspecified)	< 0.3
O=C(NCCN1C(=O)S/C(=C\c2ccc(Cl)cc2)C1=O)C1=COCCO1	2.6 (≈ 6.59 µM)
N#Cc1c(N)nc(Sc2ccc(Cl)cc2)c(C#N)c1-c1ccccc1Cl	< 0.2
Cn1c(=O)n(C)c2cc(S(=O)(=O)N3CCCCC3)ccc21	> 46.4
CS(=O)(=O)c1ccc(C(=O)OCC(=O)NCc2cccs2)cc1[N+](=O)[O-]	16.1 (≈ 40.4 µM)
CCOCC(=O)Nc1cc(C)on1	22.8 (≈ 124 µM)
CCc1ccc(NC(=O)C2(C)Cc3ccccc3C(=O)O2)cc1 (stereo unspecified)	> 46.4
NC(=O)C1CCN(C(=S)NC2CC3C=CC2C3)CC1 (stereo unspecified)	> 41.9
O=C(OCC(=O)N1CCCCCC1)c1ccc(Cl)nc1	> 44.5
CC1(C)OC(=O)C(=NNc2ccccc2C(=O)O)C(=O)O1	> 43.8
CCOC(=O)c1c(NC(=O)COC(=O)C2CC2C)sc(C)c1C (stereo unspecified)	< 0.7
Cc1ccc(C(=O)NCC(c2ccc(F)cc2)N2CCOCC2)cc1 (stereo unspecified)	44.4 (≈ 130 µM)
Nc1ccc(-c2nc3ccccc3s2)cn1	17.7 (≈ 77.9 µM)
CCN(CC)CCNC(=O)C(=O)Nc1ccc(C(=O)OC)cc1	> 48.2
Cc1ccccc1NCc1ccc([N+](=O)[O-])s1	13.7 (≈ 55.2 µM)
CCC(=NCc1cc(OC)cc(OC)c1)c1c(O)[nH]c(=O)[nH]c1=O	12.5 (≈ 37.5 µM)
Cc1cc(OCC(=O)Nc2ccncc2)ccc1[N+](=O)[O-]	35.8 (≈ 125 µM)
COc1cccc(CNC(=O)c2ccncc2)c1	36.3 (≈ 150 µM)
O=C(NC12CC3CC(CC(C3)C1)C2)c1ccc([N+](=O)[O-])o1	34.9 (≈ 120 µM)
Cc1ccccc1NC1=NCC(c2ccc([N+](=O)[O-])cc2)S1 (stereo unspecified)	10.5 (≈ 33.5 µM)
CC(=O)NCc1ccc(-c2csc(NC(=O)CCc3nc4ccccc4c(=O)[nH]3)n2)s1	7.3 (≈ 16.1 µM)
c1cnc2c(c1)ccc1ncccc12	> 27

SMILES	solubility kinetic [µg/mL]
O=C(NCc1ccc(F)cc1)C(c1ccccc1)c1ccccc1	< 0.7
CN(Cc1cccs1)C(=O)COC(=O)CNC(N)=O	> 42.8
Cn1c(=O)c([N+](=O)[O-])c(N2CCSCC2)c2ccccc21	2.2 (≈ 7.2 µM)
CC(=O)C1=C(O)C(=O)N(c2ccc(F)cc2)C1c1ccc(C)cc1 (stereo unspecified)	> 48.8
C[N+]12CCCCC1[C@@H](CO)CCC2.[Br-] (stereo partly specified)	39.1
CC1CC(C)CN(C(=O)CCn2c(=O)oc3ccccc32)C1 (stereo unspecified)	> 45.4
O=C(Nc1ccccc1)Nc1cccc2ccccc12	0.3 (≈ 1.14 µM)
Cc1cc(-n2c(C)cc(C(=O)CN3C(=O)C(=O)N(C)C3=O)c2C)no1	> 51.6
Cn1c(C(=O)NCCc2ccccc2)cc(=O)n(C)c1=O	> 43.1
NS(=O)(=O)c1cccc(NC(=O)COC(=O)c2cc([N+](=O)[O-])ccc2N2CCCC2)c1	9.7 (≈ 21.6 µM)
Cc1ccccc1OCC(=O)OCC(=O)NCc1ccco1	> 45.5
CC1CCN(CC(=O)Nc2ccc(Cl)cc2[N+](=O)[O-])CC1	0.9 (≈ 2.89 µM)
COc1ccc2[nH]cc(CCN(C)C)c2c1	> 32.7
CC(C)c1ccccc1NS(=O)(=O)c1cccs1	28.2 (≈ 100 µM)
N#Cc1ccsc1NC(=O)c1cccc([N+](=O)[O-])c1	4.2 (≈ 15.4 µM)
NC(=O)CCC(NC(=O)c1ccc(Cl)cc1)C(=O)O (stereo unspecified)	> 42.7
O=S(=O)(CCNCc1cccs1)c1ccc(Cl)cc1	32.5 (≈ 103 µM)
CCn1c(SCc2ccccc2)nc2cc(S(N)(=O)=O)ccc21	2.2 (≈ 6.33 µM)
CC(C)(C)N(CC#CCC(O)(c1ccccc1)c1ccccc1)CCO	47.1 (≈ 134 µM)
CCN1C(=O)c2cccc3c(N)ccc(c23)C1=O	7.5 (≈ 31.2 µM)
O=C(CN1C(=O)c2ccccc2C1=O)Nc1ccccc1N1CCOCC1	> 54.8
COc1ccc(OC)c(/C=C/C(=O)OCC(=O)N2CCCC2)c1	> 47.9
O=C(CSc1ncc(-c2ccccc2)[nH]1)Nc1ccccc1F	> 49.1
